Article PMC8032764 (Scientific Reports, 2021)

Experiments:
Angiotensin AT2 = system: T1, Angiotensin AT2; assay: Cerep binding; design: species or system human; details: 10 μM; [125I]CGP 42112A; hum. recomb. (CHO)
T1 construct: purchased Eurofins Cerep

Prostanoid EP4 = system: T2, Prostanoid EP4; assay: Cerep binding; design: species or system human; details: 10 μM; [3H]PGE2; hum. recomb. (CHO)
T2 construct: host or cells: CHO

Neuropeptide Y1 = system: T3, Neuropeptide Y1; assay: Cerep binding; design: species or system human; details: 10 μM; [125I]peptide YY; hum., SK-N-MC cells
T3 construct: purchased Eurofins Cerep

Dopamine D4.4 = system: T4, Dopamine D4.4; assay: Cerep binding; design: species or system human; details: 10 μM; [3H]spiperone; hum. recomb. (CHO)
T4 construct: host or cells: CHO

Serotonin 5-HT6 = system: T5, Serotonin 5-HT6; assay: Cerep binding; design: species or system human; details: 10 μM; [3H]LSD; hum. recomb. (CHO)
T5 construct: purchased Eurofins Cerep

Serotonin transporter = system: T6, Serotonin transporter; assay: Cerep binding; design: species or system human; details: 10 μM; [3H]imipramine; hum. recomb. (CHO)
T6 construct: host or cells: CHO

Cannabinoid CB1 = system: T7, Cannabinoid CB1; assay: Cerep binding; design: species or system human; details: 10 μM; [3H]CP 55940; hum. recomb. (CHO)
T7 construct: host or cells: CHO

Serotonin 5-HT5a = system: T8, Serotonin 5-HT5a; assay: Cerep binding; design: species or system human; details: 10 μM; [3H]LSD; hum. recomb. (CHO)
T8 construct: purchased Eurofins Cerep

[1] = Pharmacokinetics, single intravenous dosing; assay type: in vivo, NHP, Cynomolgus macaque; details: cynomolgus monkey, plasma, 1.0 mg/kg i.v.
[2] = molecular target: T9, human GABAA α1β3γ2 receptors (Homo sapiens, UniProt P14867+P18507); assay: [3H]-flumazenil competition binding, HEK293 membranes; details: 1 nM [3H]-flumazenil
T9 construct: expressed in transfected cells; host or cells: HEK293-EBNA, transient

NMDA (PCP) = assay: Cerep binding; details: 10 μM; [3H]TCP; rat cerebral cortex
Serotonin 5-HT2A = system: T10, Serotonin 5-HT2A; assay: Cerep binding; design: species or system human; details: 10 μM; [3H]ketanserin; hum. recomb. (HEK-293)
T10 construct: purchased Eurofins Cerep

healthy male subjects = assay: Study WP25366 multiple-ascending dose, safety EEG and plasma exposure; assay type: in vivo, human
Experimental: 2) Study WP25366 Multiple-Ascending Dose (MAD) in Healthy Volunteers
Of the 32 healthy male subjects who were randomized to treatment, 24 subjects were […]
participants had several EEGs and several participants had sleep assessments with EEG that were also evaluated:
• Cohort 1: 80 mg (n dosed: 6)
• Cohort 2: 160 mg (n dosed: 6)
• Cohort 3: 370 mg (n dosed: 6)
• Cohort 4: 1000 mg (n dosed: 6)
EEG monitoring was implemented in this study starting at about 1 hour prior to dosing and then up to approximately 7 hours after dosing, on selected days during the dosing period. All sleep recordings were performed for approximately 8 h from 23.00 to 07.00. The objective of such monitoring was detection if any, of specific EEG patterns such as spikes, sharp waves, and spike-and-wave discharges that would be indicative of epileptiform changes or non - […]
The day and night EEG recordings were subject to expert safety review, with the objective of identifying any pro-convulsive signals. Following this safety review, EEG results were recorded either as normal, normal variant or abnormal variant. […]
of epileptogenic effects (e.g., generalized spike-wave discharges) in any subject in any dose group at any time points during the study. The review of the day and night EEG recordings […]
160 mg BID, 370 mg BID and 1000 mg BID, was safe and ha d no impact on brain electrical activity. Maximum plasma concentrations at Day 13 were 2120, 4110, 6040, and […]
3) Study WP29402 Drug-Drug Interaction (DDI) Itraconazole in Healthy Volunteers This was an open-label, three treatment, fixed sequence crossover study to investigate the […]
healthy male and female volunteers (age range 18-60 years; n: 12). As systemic basmisanil exposure was predicted to be higher than exposures achiev ed in previous clinical studies, regular EEG examinations were included and reviewed by a neurologist. Multiple oral doses […]
with the CYP3A inhibitor, itraconazole (200 m g OD).
Baseline EEG assessments were performed prior to the study (resting EEG eyes open/closed, intermittent photic stimulation, hyperventilation). On treatment days (1, 3, 5, 8) […]
hours and resting EEG eyes open/closed w ere performed. […]
administered with itraconazole.

Melatonin MT1 (ML1A) = system: T11, Melatonin MT1 (ML1A); assay: Cerep binding; design: species or system human; details: 10 μM; [125I]2-iodomelatonin; hum. recomb. (CHO)
T11 construct: host or cells: CHO

Plasma protein binding = assay type: in vitro ADME
Excerpt: Free plasma concentrations were used to estimate receptor occupancy.

Adrenergic β1 = system: T12, Adrenergic β1; assay: Cerep binding; design: species or system human; details: 10 μM; [3H](-)CGP 12177; hum. recomb. (HEK-293)
T12 construct: host or cells: HEK-293

Structure (SMILES): Cc1onc(-c2ccc(F)cc2)c1COc1ccc(C(=O)N2CCS(=O)(=O)CC2)cn1 [basmisanil]
- % Inhibition (Angiotensin AT2): -3%
- % Inhibition (Prostanoid EP4): 3%
- % Inhibition (Neuropeptide Y1): 0%
- % Inhibition (Dopamine D4.4): 9%
- % Inhibition (Serotonin 5-HT6): 7%
- % Inhibition (Serotonin transporter): 5%
- % Inhibition (Cannabinoid CB1): 16%
- % Inhibition (Serotonin 5-HT5a): 5%
- half-life ([1]; n=3): 4.5 ± 1.8 h
- clearance ([1]; n=3, read-out: Total CL): 3 ± 0.7 mL/min/kg
- Vd ([1]; n=3, read-out: Vss): 0.9 ± 0.6 L/kg
- Ki [2]: 1030 ± 54 nM
- % Inhibition (NMDA (PCP)): 14%
- % Inhibition (Serotonin 5-HT2A): -9%
- Maximum plasma concentration at Day 13 (healthy male subjects; 80 mg BID): 2120 ng/mL
- Maximum plasma concentration at Day 13 (healthy male subjects; 160 mg BID): 4110 ng/mL
- Maximum plasma concentration at Day 13 (healthy male subjects; 370 mg BID): 6040 ng/mL
- Maximum plasma concentration at Day 13 (healthy male subjects; 1000 mg BID): 8520 ng/mL
- EEG assessments (healthy male subjects; 80, 160, 370 and 1000 mg BID): revealed no findings of clinical concern
- % Inhibition (Melatonin MT1 (ML1A)): 14%
- fraction unbound (Plasma protein binding; human, plasma, primates, including humans): 0.055
- free fraction (Plasma protein binding; primates, including humans): 5.5%
- fraction unbound (Plasma protein binding; rat, rats): 0.14
- % Inhibition (Adrenergic β1): 6%
